Our source for the TGI values is PubChem BioAssay (NCI).

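Where inhibition never reached the appropriate level, the endpoint shown equals the highest concentration tested. Otherwise, values were interpolated linearly from a five-concentration, 48-hour dose response in 96-well plates. At the TGI there is no net growth.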 A value given as a limit tells only on which side of the number the result lay.

Assay in all cases: growth of human tumour cells (NCI), 48 h
Experiment [1] has as its system NCI/ADR-RES ovarian.
In experiment [2] the test system is KM12 colon.
Experiment [3] has as its system HOP-92 NSCLC.
The subject of experiment [4] is M14 melanoma.
Experiment [5] has as its system SK-MEL-2 melanoma.
Experiment [6] relates to RPMI-8226 leukemia.
The test system of experiment [7] is SF-268 CNS.
The test system of experiment [8] is SW-620 colon.
Experiment [9] deals with SK-MEL-28 melanoma.
Experiment [10] deals with U251 CNS.
Experiment [11] has as its system A498 renal.
The subject of experiment [12] is OVCAR-3 ovarian.
The subject of experiment [13] is SF-539 CNS.
Experiment [14] concerns HCT-116 colon.
Experiment [15] concerns UO-31 renal.
Experiment [16] has as its system HCT-15 colon.
In experiment [17] the test system is HOP-62 NSCLC.
The subject of experiment [18] is SN12C renal.
Experiment [19] concerns RXF 393 renal.
The test system of experiment [20] is HT29 colon.

Take `CCC(C)C(=O)OC1C(=O)OC2CC3C(C)=CC(=O)C(O)C3(C)C3C4(O)OCC23C1C(C)C4O` (stereo unspecified): the TGI in experiment [1] came out at 6.47 µM; in experiment [2], 0.133 µM; in experiment [3] it was 0.205 µM; in [4], 0.0481 µM; in [5] it was 0.184 µM; in experiment [6], 0.784 µM. Besides, the TGI in [7] was 0.124 µM; in experiment [8], 0.694 µM; in experiment [9], 0.106 µM; in experiment [10] it was under 0.0317 µM; in experiment [11], 3.3 µM; in experiment [12], 0.124 µM. Besides, the TGI is 0.0315 µM in experiment [13]; 1.4 µM in experiment [14]; 0.278 µM in experiment [15]; 0.944 µM in [16]; 0.149 µM in experiment [17].

Take `CCOC(=O)/C=C/CC(C)(C)COC(C)=O`: the TGI in experiment [1], in [2], in [18], in experiment [4], in [19] and in experiment [5] was over 10 µM throughout. In addition, the TGI in experiment [6], in experiment [7], in experiment [8], in experiment [9], in experiment [12] and in [14] was over 10 µM each time. For the same molecule, the TGI in [15] and in experiment [16] was over 10 µM in each case.

Consider `CCN(CC)C(=O)c1cc(OC(C)C)ccc1-c1c(C)cc(OC(C)C)c(OC)c1OC`, for which the TGI in [2], in [18], in [4], in experiment [19], in [5] and in [6] was over 100 µM throughout. Also, the TGI in experiment [7], in experiment [8], in experiment [9], in [10], in experiment [20] and in experiment [12] was over 100 µM in each case. Also, the TGI in experiment [13], in [14], in [15], in experiment [16] and in experiment [17] was over 100 µM in each case.

With `CCOC(=O)C1(CO)CSCCSC1`, the TGI in experiment [1], in experiment [2], in experiment [18], in experiment [3], in experiment [19] and in experiment [7] was over 100 µM each time. The TGI in experiment [8], in experiment [9], in experiment [10], in experiment [20], in experiment [11] and in experiment [14] was over 100 µM each time. In addition, the TGI in experiment [15] and in experiment [16] was over 100 µM throughout.

As to `CC(=O)c1c(-c2ccc(Cl)cc2)c(-c2ccc(Cl)cc2)n[nH]c1=O`, the TGI in experiment [1] was over 100 µM; in experiment [2], over 100 µM; in experiment [18], 93.3 µM; in [3] it was over 100 µM; in [4], over 100 µM; in experiment [19], over 100 µM. Moreover, the TGI is 81.3 µM in [5]; 55.4 µM in experiment [6]; over 100 µM in experiment [7]; over 100 µM in experiment [8]; over 100 µM in experiment [9]; over 100 µM in [10]. In addition, the TGI was over 100 µM in [20]; 77.4 µM in [11]; 79.8 µM in [12]; 64.2 µM in experiment [13]; over 100 µM in experiment [14]; over 100 µM in experiment [16].

Take `Cc1[nH]c(=O)[nH]c(=O)c1/C=C/C(=O)NC(CO)CC(C)C` (stereo unspecified): the TGI in experiment [1] was over 375 µM; in experiment [2] it was over 375 µM; in [18], over 375 µM; in experiment [3], over 343 µM; in [19], over 375 µM; in [5], over 375 µM. For the same molecule, the TGI in experiment [6], in [7], in experiment [8], in experiment [9], in experiment [10] and in [20] was over 375 µM in each case. The TGI in [11], in [12], in experiment [13], in [14], in [15] and in [16] was over 375 µM throughout. Moreover, the TGI in experiment [17] was over 375 µM.

`NC(=O)NC1NC(=O)NC1=O` (stereo unspecified): the TGI in [1], in [2], in experiment [18], in experiment [3], in experiment [4] and in experiment [19] was over 100 µM throughout. In addition, the TGI in experiment [5], in experiment [6], in experiment [7], in [8], in experiment [9] and in [10] was over 100 µM each time. The TGI in [20], in experiment [11], in experiment [12], in experiment [13], in experiment [14] and in [15] was over 100 µM each time. In addition, the TGI in experiment [16] and in experiment [17] was over 100 µM throughout.

In the case of `C1=C(CC2=C[P+](c3ccccc3)(c3ccccc3)C=C(c3ccccc3)O2)OC(c2ccccc2)=C[P+]1(c1ccccc1)c1ccccc1`, the TGI in experiment [1] turned out to be 66.7 µM; in experiment [2] it was 1.1 µM; in [4], 1.8 µM; in experiment [6], 0.558 µM; in experiment [7], 1.61 µM; in [8] it was 1.42 µM. The TGI in experiment [9] came to 2.02 µM; in [10], 1.23 µM; in [20], 1.35 µM; in experiment [11] it was 2.09 µM; in experiment [12], 1.16 µM; in experiment [13] it was 1.36 µM. Further, the TGI in [14] came to 1.25 µM; in experiment [15], 2.94 µM; in experiment [16], 3.22 µM; in experiment [17], 1.88 µM.

As to `NC(CSS(=O)(=O)O)=NC1CC2CCC1C2` (stereo unspecified), the TGI in [1], in [2], in [18], in [3], in experiment [4] and in experiment [19] was over 100 µM each time. In addition, the TGI in experiment [5], in experiment [6], in [7], in [8], in [9] and in experiment [10] was over 100 µM throughout. Also, the TGI in [11], in [12], in experiment [13], in experiment [14], in experiment [16] and in [17] was over 100 µM in each case.

Consider `[O-][n+]1nc(N2CCOCC2)nc2ccccc21`, for which the TGI in experiment [1], in [2], in [18], in [4], in [19] and in experiment [5] was over 100 µM in each case. For the same molecule, the TGI in experiment [6], in experiment [7], in experiment [8], in experiment [9], in experiment [10] and in experiment [20] was over 100 µM throughout. The TGI in experiment [11], in experiment [13], in experiment [14], in [15], in experiment [16] and in [17] was over 100 µM throughout.

With `CCC1CN2CCc3cc(OC)c(OC)cc3C2CC1CC1c2cc(OC)c(OC)cc2CCN1C(=O)C(N)Cc1ccccc1` (stereo unspecified), the TGI in [2] turned out to be 10.2 µM; in experiment [18], 10.8 µM; in experiment [3], 6.41 µM; in experiment [4], 2.19 µM; in [19], 4.37 µM; in experiment [5], 6.1 µM. The TGI in experiment [6] was determined as 6.07 µM; in experiment [7], 13.7 µM; in experiment [8], 10.9 µM; in experiment [9], 10.3 µM; in [10] it was 5.97 µM; in experiment [20], 10.4 µM. Further, the TGI in [11] was 11 µM; in experiment [12], 15.4 µM; in [13] it was 7.48 µM; in experiment [14], 1.29 µM; in experiment [15] it was 5.85 µM; in experiment [16], 10.9 µM. The TGI in [17] was 7.78 µM.

With `N=C1C(=N)c2ccccc2-c2ccccc21.[Cl-].[Ru+2].c1cnc2c(c1)ccc1cccnc12.c1cnc2c(c1)ccc1cccnc12`, the TGI is over 100 µM in [2]; over 100 µM in [18]; 67.9 µM in experiment [3]; 43.3 µM in experiment [4]; over 100 µM in [19]; 91.4 µM in experiment [5]. The TGI in experiment [7] is over 100 µM; in experiment [8] it was 41.4 µM; in experiment [9] it was 60.7 µM; in experiment [10], 73.9 µM; in [20], over 100 µM; in experiment [12], 68.6 µM. Besides, the TGI was 57.8 µM in [13]; 88.8 µM in experiment [14]; over 100 µM in experiment [15]; over 100 µM in experiment [16]; over 100 µM in experiment [17].

Take `CC(C)=CCc1c(O)cc(O)c2c1OC(c1ccc(O)cc1)C(O)C2=O` (stereo unspecified): the TGI in experiment [2] is 58.9 µM; in experiment [18], over 100 µM; in [3], 39.7 µM; in experiment [4], 57.3 µM; in experiment [19], 49.9 µM; in experiment [5], 50.9 µM. Also, the TGI was over 100 µM in experiment [7]; over 100 µM in [8]; 50.7 µM in [9]; 74.5 µM in experiment [10]; 40.3 µM in [20]; over 100 µM in experiment [11]. In addition, the TGI is 36.7 µM in experiment [12]; 35.5 µM in [13]; over 100 µM in experiment [14]; 90.4 µM in experiment [15]; 55.7 µM in experiment [16]; 36.3 µM in experiment [17].

As for `CC(=O)OC1C=C(C=O)C(O)(C=O)C2(C)CCCC(C)(C)C12` (stereo unspecified), the TGI in [1] was determined as 5.57 µM; in experiment [2], 5.14 µM; in experiment [18] it was 5.97 µM; in experiment [3], 2.98 µM; in experiment [19] it was 1.01 µM; in experiment [5] it was 6.81 µM. Further, the TGI in [6] turned out to be 1.5 µM; in experiment [7], 5.35 µM; in experiment [8], 0.953 µM; in experiment [9], 3.42 µM; in [10] it was 7.39 µM; in [20], 3.65 µM. The TGI was 2.31 µM in experiment [11]; 2.15 µM in experiment [12]; 5.74 µM in experiment [13]; 3.92 µM in [14]; 5.66 µM in experiment [15]; 1.7 µM in [16]. The TGI in experiment [17] stood at 14.6 µM.

As to `NCC(Cl)C(O)c1cnc(N)[nH]1` (stereo unspecified), the TGI is over 100 µM in [1]; 2.96 µM in experiment [2]; 32.8 µM in experiment [18]; 91.4 µM in experiment [3]; 4.7 µM in [19]; 18.3 µM in experiment [5]. For the same molecule, the TGI is 2.15 µM in experiment [6]; over 73.8 µM in experiment [7]; 3.89 µM in [8]; over 76.6 µM in experiment [9]; over 100 µM in experiment [10]; over 37.1 µM in [20]. The TGI in experiment [11] was 1.01 µM; in experiment [12] it was 16.2 µM; in experiment [13] it was 5.85 µM; in [14] it was over 34.5 µM; in experiment [15], 6.38 µM; in experiment [16], over 63.2 µM. Besides, in [17], the TGI turned out to be 5.98 µM.

`C=C(C)C1CC=C(C)C(=O)C1` (stereo unspecified): the TGI in experiment [1], in experiment [2], in experiment [18], in experiment [3], in experiment [4] and in [5] was over 100 µM in each case. The TGI in experiment [6], in [7], in [8], in experiment [9], in experiment [10] and in [20] was over 100 µM in each case. Further, the TGI in [12], in [13], in experiment [14], in [15], in experiment [16] and in experiment [17] was over 100 µM each time.
